The text below walks through data of patent publication US9138659B2, “Compositions, methods, and systems relating to controlled crystallization and/or nucleation of molecular species” (Massachusetts Institute of Technology, priority 2010, dated 2015).

For data set [1] the following is noted: CBZ anhydrous forms; ambient conditions; cited from earlier work.
A short description of data set [2]: CBZ nucleation induction time and polymorphic outcome with PEGMDA microgels in ethanol. It counts as physicochemical. The source says: Results and Discussion: Monodispersed cubelike PEGMDA microgels (FIG. 27 left), with M ranging from 130 to 700 g/mol were synthesized by Stop-Flow Lithography, The mesh sizes vary from 0.7 to 1.5 nm in solvent ethanol (Table 9), estimated from equilibrium swelling by the Flory-Rehner theory. The accuracy of this method for obtaining mesh sizes has been confirmed with Small-Angle Neutron Scattering in a different solvent. The microgels were utilized for controlling polymorph crystallization by suspending ˜10 μg of microgels per 1 ml solution by stiffing. Such a low microgel concentration may be sufficient to effect drastic change in the crystallization behavior (discussed later), underscoring the effectiveness of polymer microgels in controlling crystallization. In all crystallization experiments, supersaturation of the solution was generated by cooling instead of solvent evaporation, despite its popularity in numerous polymorph studies, to yield better control over the crystallization process.
Occasionally, pure Form III was also obtained from bulk experiments. […] However, such polymorph selectivity could not be attained using microgels with M<400 g/mol (˜100 trials) where the polymorphic outcome was quite similar to that of the bulk samples (Table 9), only with a decreased mass fraction of Form I in the mixture obtained (FIG. 28 discussed later) and a lower frequency of occurrence of Form III.
Average mesh size ξ was estimated from equilibrium swelling experiments in solvent ethanol. Induction time distribution data were fitted with stretched exponentials via nonlinear least square regression: P=exp[−(t/τ)^β], where P is the probability to observe no crystallization event within time t.
Induction time was measured by monitoring IR transmission signal passing through a solution in controlled temperature environment and stirring condition. Once nucleation occurred, the solution became turbid in seconds indicated by a sharp drop of IR signal, due to secondary nucleation and rapid crystal growth. The statistical nature of nucleation necessitated a large number of experiments (50-100) for obtaining the distribution of induction times, from which the average induction time τ was regressed with a stretched-exponential model, P(t)=exp[−(t/τ)^β], where P is the probability to observe no crystallization event within time t. In brief, the stretched-exponential model modified the single exponential model derived from the Poisson statistics, P(t)=exp (−t/τ) by adding an exponent β to the dimensionless induction time t/τ to capture the spread in characteristic time scales caused by a distribution of nucleation active sites present in the system.

Data set [3] can be described thus: Partition coefficients of CBZ and ROY in PEGMDA microgels from ethanol solutions. The data set is classed as physicochemical. The conditions noted are these: ethanol solution.
Data set [4] in a line: Solubility of ASA and ACM. The data set is classed as physicochemical. The conditions noted are these: aqueous with cosolvent or surfactant or cyclodextrin; 38/62 (v/v) ethanol/water mixture at 25° C.
Data set [5] is described as follows: Nucleation induction time of ASA / ACM with PEGDA or PEGDA-co-AM microgels in 38/62 ethanol/water. The data set is classed as physicochemical. The conditions noted are these: for average nucleation induction time τ: ACM S = 3.7; for Average nucleation induction time τ (stretched exponential fit) / τ1 (two-exponential fit) / τ2 (two-exponential fit): ACM. The source says: Nucleation kinetics of model compounds was investigated by measuring the nucleation induction time probability distribution. Nucleation induction time is generally time elapsed prior to the formation of a detectable amount of the new crystalline phase. It is a useful indicator of the surface nucleation activity because it can be dramatically shortened when the presence of an interface lowers the free energy barrier of nucleation. Due to the stochastic nature of nucleation events, a large number of experiments were performed to obtain the probability distribution of nucleation induction time. To obtain the average induction time τ, statistical analysis on the induction time data was conducted based on the understanding that nucleation follows a Poisson distribution. According to Poisson statistics, the probability for a nucleation event to occur beyond time t is P=exp(−t/τ), which implies that the fraction of vials without nucleation at time t exponentially decays as a function of time, where the scaling factor for time is the average induction time.
For determining the statistical analysis of aspirin nucleation induction time with PEGDA particles of various mesh sizes (particles denoted by Mn), 1.9 mL of 38 mg/ml ASA solution in 38/62 ethanol/water (v/v) with 15 μg/mL PEGDA particles was cooled at a rate of 5° C./min from 35° C. to 15° C. to achieve a supersaturation of 2.1. The solution was stirred at 700 rpm. The onset of nucleation was detected by an IR probe which measures the transmission signal through the solution. A total of 10 vials were cycled for 5-10 times to yield 50-100 nucleation induction time measurements for the statistical analysis.
The nucleation rate, J, is given by J=1/τV, where τ the average induction time (Table 1) and V the volume of solution. For this equation to be valid, the assumption is that the crystal growth rate is much faster than the nucleation rate, which is the case for ASA. […] Other crystallization conditions were kept the same.
[…] The solution was stirred at 700 rpm. The onset of nucleation was detected by an IR probe which measures the transmission signal through the solution. A total of 10 vials were cycled for 5-10 times to yield 50-100 nucleation induction time data for the statistical analysis.
Effect of polymer gels on nucleation induction time statistics: To evaluate the impact of polymer-solute interactions on nucleation kinetics, induction times of ASA and ACM were measured with microgels of a series average mesh sizes before and after chemical modification suspended in respective supersaturated solutions. […] For each system, a large number of experiments (50-100) were conducted to obtain the induction time probability distribution. The nucleation induction time generally follows the Poisson distribution. However, deviations can occur, as observed in this study, when there is more than one type of nucleation sites in a sample, giving rise to multiple Poisson processes with different characteristic time scales.
For samples with PEGMDA microgels, the nucleation induction time distributions reported in previous work can be faithfully described by stretched exponentials (Tables 5 and 6), P=exp[−(t/τ)^β], where P is the probability to observe no crystallization event within time t, τ the average induction time. The stretched exponential exponent β served as a measure for the spread of time scales characterizing the nucleation process, or the distribution of kinetic barriers arisen from the heterogeneity of the system. Such heterogeneity can be attributed to the heterogeneity of the polymer microstructure identified using SANS, which resulted from a distribution of nucleation sites arising from spatial variations in both the mesh size and chemical composition of the hydrogel at nanometer length scales. Note that β varies with the average mesh size of the microgel. […]

Data set [6] can be described thus: Equilibrium partitioning of ASA / ACM into PEGDA and PEGDA-co-AM gels. It counts as physicochemical. The conditions noted are these: for increase in κ with modified gels: ACM. How it is done:
This theory is exemplified by quantifying the partitioning of aspirin between the PEGDA gel phase and 38/62 ethanol/water (v/v), and determining the concentration of aspirin in the hydrogel particles. The partitioning experiments were performed at the same solution concentration and temperature as in the nucleation induction time experiments. In the partitioning experiment, both the concentrations of aspirin and ethanol were measured, as there are three species in the bulk solution, namely aspirin, ethanol and water, all of which partition in the gel phase to a certain degree determined by their relative interaction with the PEGDA polymer matrix.
Composition of aspirin solution in the PEGDA gel phase were compared with the bulk phase. PEGDA gels sufficiently large for convenient handling were synthesized by UV polymerization, following the same formulation as the synthesis of PEGDA particles used in the crystallization study. The PEGDA gels were washed with ethanol and vacuum dried to remove unreacted species. The gel was then immersed in excessive 38 mg/ml aspirin solution in 38/62 ethanol/water (v/v) and allowed sufficient time to reach equilibrium swelling at 15° C. before taken out, pad dried, and put in excessive water. After 5 hours immersed in water, the concentrations of aspirin and ethanol in the aqueous phase were analyzed by UV-Vis spectroscopy and Gas Chromatography, respectively.
In FIG. 10: Partitioning of aspirin vs. acetaminophen in the PEGDA gel. Y axis represents the relative API concentration in the PEGDA, normalized by the bulk concentration. The aspirin partitioning experiment was conducted in 38 mg/ml aspirin solution in 38/62 ethanol/water (v/v) at 15° C. As for acetaminophen, 95 mg/ml acetaminophen solution in 38/62 ethanol/water (v/v) was used and the equilibration temperature was 8° C. In both cases, the experimental conditions were kept the same as used in the nucleation induction time study.
Quantification of polymer-solute interactions: The strength of intermolecular interactions between the PEGDA-co-AM polymer network and the molecule to crystallize was characterized with the solute equilibrium partition coefficient at the same condition as used in the crystallization study. Solute partition coefficient κ, defined as the ratio of solute mass fraction in solution confined in the gel to that in the bulk, is a relevant parameter because it informs the solute concentration in the gel at the crystallization condition, which is an important factor affecting nucleation. […] The PEGDA polymers are comprised of the PEG subchain and the acrylate crosslinkers.
Partition coefficient measurements: Partition coefficients of ASA in PEGDA-co-AM gels from its bulk solution were determined as follows. In brief, a series of gels with varying mesh sizes of approximately 5 mm in diameter and 0.5 mm in thickness were synthesized via UV polymerization following the same formula as used in the microgel synthesis. The residue solvent, porogen and monomer molecules were removed by extensive washing with solvent ethanol and subsequent vacuum drying. The dry gels were then immersed in excessive volume of 38 mg/ml ASA solution in 38/62 (v/v) ethanol/water at 15° C. for overnight.

The mark [7] stands for this setting: CBZ, Bulk ethanol solution, S=1.63, T=25° C.
The mark [8] stands for this setting: CBZ, PEGMDA microgels M 130 g/mol.
[9] abbreviates: CBZ, PEGMDA microgels M 200 g/mol.
The mark [10] stands for this setting: PEGDA-co-AM microgels M 130 g/mol.
Setting [11] is: PEGDA-co-AM microgels M 200 g/mol.
The mark [12] stands for this setting: PEGDA-co-AM microgels M 400 g/mol.

Values after ≈ are worked out from the molar mass of the structure shown. “Also recorded” adds a separate entry of the source.

With `NC(=O)N1c2ccccc2C=Cc2ccccc21` [CBZ, carbamazepine], the “energy separation between form III and II” value in data set [1] was “less than 0.7 kcal/mol”. Moreover, the Polymorph entry in data set [2] (setting [7]) was “concomitant crystallization of Forms I and II; also recorded: II & I, occasionally”; in data set [2] (setting [8]), “II & I”; in data set [2] (setting [9]) it was “II & I”. Besides, the “average nucleation induction time τ” value came out at 427 ± 13 min in data set [2] (setting [7]); 222 ± 5 min in data set [2] (setting [8]); 174 ± 11 min in data set [2] (setting [9]); 10.9 ± 0.3 min in data set [2] (CBZ, PEGMDA microgels M 400 g/mol); 33 ± 1 min in data set [2] (CBZ, PEGMDA microgels M 575 g/mol); 49 ± 1 min in data set [2] (CBZ, PEGMDA microgels M 700 g/mol). Besides, in data set [2] (CBZ, PEGMDA microgels with M≧400 g/mol, ~250 trials), the Polymorph crystallized entry is on record as “pure Form II”. Further, in data set [2] (PEGMDA microgels), the optimum mesh size for CBZ nucleation turned out to be 1.1 nm. Besides, the “Partition coefficient κ (solute mass fraction in gel solution / bulk)” value in data set [3] (PEGMDA microgels M 130 g/mol) is given as 3.0 ± 0.4; in data set [3] (PEGMDA microgels M 200 g/mol), 2.7 ± 0.1; in data set [3] (PEGMDA microgels M 400 g/mol), 3.8 ± 0.2; in data set [3] (PEGMDA microgels M 575 g/mol), 3.8 ± 0.04; in data set [3] (PEGMDA microgels M 700 g/mol) it was 3.7 ± 0.1.

Turning to `CC(=O)Nc1ccc(O)cc1` [acetaminophen], the solubility in data set [4] amounted to 90 mg/mL (≈ 595 mM). The “average nucleation induction time τ” value is 6500 ± 1600 min in data set [5] (Bulk (no particles), 38/62 ethanol/water); 920 ± 70 min in data set [5] (PEGDA microparticles Mn 130 g/mol); 540 ± 20 min in data set [5] (PEGDA microparticles Mn 200 g/mol); 1720 ± 150 min in data set [5] (PEGDA microparticles Mn 400 g/mol); 6500 ± 1600 min in data set [5] (PEGDA microparticles Mn 700 g/mol). For the same molecule, the “Average nucleation induction time τ (stretched exponential fit)” value in data set [5] (Bulk) was 37000 min; in data set [5] (PEGDA microgels M 130 g/mol), 1600 min; in data set [5] (PEGDA microgels M 200 g/mol), 480 min; in data set [5] (PEGDA microgels M 400 g/mol), 5300 min; in data set [5] (PEGDA microgels M 700 g/mol), 37000 min. Further, the results for the “τ1 (two-exponential fit)” value in data set [5] (setting [10]), in data set [5] (setting [11]) and in data set [5] (setting [12]) were 55 min, 88 min and 70 min, respectively. The “τ2 (two-exponential fit)” value worked out at 1360 min in data set [5] (setting [10]), 12400 min in data set [5] (setting [11]) and 35000 min in data set [5] (setting [12]). The “promotion of nucleation kinetics when AM co-monomer was introduced into the PEGDA matrix” value in data set [5] (PEGDA-co-AM vs PEGDA microgels) is “up to two orders of magnitude”. In data set [5] (vs bulk, Table 2), the “best enhancement in nucleation kinetics by addition of PEGDA particles” value was “about ten-fold”. For the same molecule, the “acetaminophen concentration in PEGDA particles relative to bulk concentration” value in data set [6] (95 mg/ml in 38/62 ethanol/water, 8° C, FIG. 10) was “approximately twice the bulk concentration”. For the same molecule, the “increase in κ with modified gels” value in data set [6] (Mn=130 g/mol) was found to be 35%; in data set [6] (Mn=700 g/mol), 14%.

One may read the solubility as how much of the substance goes into solution per volume.
